Values quoted from earlier work in patent US12421507B2, “Methods and compositions for optochemical control of CRISPR-CAS9” (THE BROAD INSTITUTE, INC., priority 2018, dated 2025).

Tests used:
mammalian DHFR (DHFRts) = conditions: cells expressing DHFRts
dystrophin exon 51 = conditions: across 48 weeks

For `CC[C@H](C(=O)N1CCCC[C@H]1C(=O)O[C@H](CCc1ccc(OC)c(OC)c1)c1cccc(OCCN2CCOCC2)c1)c1cc(OC)c(OC)c(OC)c1` [Shield-1], the “binding to and stabilization of the DD” value (Mutants of human FKBP12) is listed as “bind to and stabilize the DD in a dose-dependent manner”.

In the case of `CN(Cc1cnc2nc(N)nc(N)c2n1)c1ccc(C(=O)N[C@@H](CCC(=O)O)C(=O)O)cc1` [methotrexate], the “degradation of DHFRts” value (mammalian DHFR (DHFRts)) is listed as “inhibited degradation of the protein partially”.

For eteplirsen, the “average dystrophin positive fibers compared to baseline” value (dystrophin exon 51) is listed as 47%.
